Measurements from PMC12391474 (Scientific Reports, 2025).
Where a name gives a salt, the structure may show the parent alone.

Target: T1, Fibrinogen (FB) (Bos taurus, UniProt P02672+P02676+P12799)
T1 sequence (P02672 20-615): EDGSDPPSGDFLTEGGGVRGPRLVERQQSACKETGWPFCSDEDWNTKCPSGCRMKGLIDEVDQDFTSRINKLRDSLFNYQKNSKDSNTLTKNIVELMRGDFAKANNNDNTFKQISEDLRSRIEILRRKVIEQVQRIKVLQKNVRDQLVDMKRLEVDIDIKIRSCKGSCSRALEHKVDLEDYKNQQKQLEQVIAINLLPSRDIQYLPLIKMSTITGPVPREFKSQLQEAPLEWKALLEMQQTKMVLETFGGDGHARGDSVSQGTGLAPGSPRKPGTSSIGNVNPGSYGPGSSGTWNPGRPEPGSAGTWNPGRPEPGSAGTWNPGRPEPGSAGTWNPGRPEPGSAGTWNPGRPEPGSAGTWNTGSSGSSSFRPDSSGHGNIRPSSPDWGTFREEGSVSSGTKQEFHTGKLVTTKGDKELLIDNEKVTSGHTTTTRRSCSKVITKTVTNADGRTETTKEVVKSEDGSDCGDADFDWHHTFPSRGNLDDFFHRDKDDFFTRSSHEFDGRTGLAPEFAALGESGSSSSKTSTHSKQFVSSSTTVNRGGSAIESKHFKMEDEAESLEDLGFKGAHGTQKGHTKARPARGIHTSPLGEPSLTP
T1 sequence (P02676 1-468): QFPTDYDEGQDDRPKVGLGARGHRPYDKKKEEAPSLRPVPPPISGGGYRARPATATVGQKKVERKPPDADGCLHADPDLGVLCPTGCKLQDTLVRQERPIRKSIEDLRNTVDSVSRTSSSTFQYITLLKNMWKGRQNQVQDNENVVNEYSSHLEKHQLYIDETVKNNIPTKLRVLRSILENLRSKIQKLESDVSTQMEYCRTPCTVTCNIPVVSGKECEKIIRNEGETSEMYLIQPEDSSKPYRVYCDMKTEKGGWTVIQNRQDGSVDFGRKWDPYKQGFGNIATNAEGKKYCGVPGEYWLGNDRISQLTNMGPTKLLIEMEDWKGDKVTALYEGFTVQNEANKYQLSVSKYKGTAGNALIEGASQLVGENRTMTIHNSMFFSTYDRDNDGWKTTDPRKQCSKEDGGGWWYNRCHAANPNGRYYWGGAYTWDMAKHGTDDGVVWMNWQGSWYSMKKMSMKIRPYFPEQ
T1 sequence (P12799 25-444): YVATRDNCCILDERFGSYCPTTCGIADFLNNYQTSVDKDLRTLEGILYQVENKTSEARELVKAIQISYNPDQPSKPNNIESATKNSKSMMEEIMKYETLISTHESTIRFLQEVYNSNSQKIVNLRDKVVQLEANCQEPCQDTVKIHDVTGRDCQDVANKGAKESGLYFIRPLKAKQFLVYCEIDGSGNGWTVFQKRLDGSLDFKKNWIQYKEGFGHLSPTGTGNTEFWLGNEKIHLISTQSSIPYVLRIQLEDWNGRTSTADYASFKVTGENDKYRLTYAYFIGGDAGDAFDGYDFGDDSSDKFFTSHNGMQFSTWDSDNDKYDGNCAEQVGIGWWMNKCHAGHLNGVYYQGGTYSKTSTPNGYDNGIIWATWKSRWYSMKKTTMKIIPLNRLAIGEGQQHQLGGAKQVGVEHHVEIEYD
Assay: intrinsic fluorescence quenching titration
Assay type: binding

CC(C)(C)NC[C@H](O)COc1nsnc1N1CCOCC1 [TM, Timolol maleate]
Kd: 1650 µM
